Results taken from patent US6750009B2 (priority 2002, dated 2004).
Values joined by “and” are separate entries in the source; they are usually repeats but may differ in a detail not shown here. Identical values can stand only once. Like-named read-outs stand apart in the source and are kept apart here.

Key:
RSV minigenome [1] = type: cell-based, Respiratory syncytia virus (RSV)
HCV replicon = type: cell-based, hepatitis C virus
RSV minigenome [2] = type: cell-based, Respiratory syncytia virus (RSV); remark: listed apart in the source
YFR replicon = type: cell-based, yellow fever virus; settings: for YFR Mixed Viral Replicon Culture % of Control (ave): co-cultured HCV/Sindbis/YFR replicons
Sindbis replicon = type: cell-based, Sindbis virus; settings: for Sindbis Mixed Viral Replicon Culture % of Control (ave): Table 3

α-interferon [IFNα]
RSV Mixed Viral Culture % of Control (ave) (RSV minigenome [1]; IFN-α 100 Units/ml): 84.30 % of Control
RSV Mixed Viral Culture % of Control (ave) (RSV minigenome [1]; IFN-α 1000 Units/ml): 77.80 % of Control
inhibition of HCV replicon (HCV replicon): > 91%
RSV Single Viral Culture % of Control (ave) (RSV minigenome [2]; IFN-α 100 Units/ml): 84.30 % of Control
RSV Single Viral Culture % of Control (ave) (RSV minigenome [2]; IFN-α 1000 Units/ml): 47.29 % of Control
inhibition of YFR replicon (YFR replicon; 100 u/ml IFNα, mixed viral replicon culture): > 81%
YFR Mixed Viral Replicon Culture % of Control (ave) (YFR replicon; IFNα 1 Units/ml): 41.47 % of Control
YFR Mixed Viral Replicon Culture % of Control (ave) (YFR replicon; IFNα 10 Units/ml): 26.09 % of Control
YFR Mixed Viral Replicon Culture % of Control (ave) (YFR replicon; IFNα 100 Units/ml): 18.64 % of Control
inhibition of Sindbis replicon (Sindbis replicon): > 98%

NC(=O)c1ncn([C@@H]2O[C@H](CO)[C@@H](O)[C@H]2O)n1 [Ribavirin, ribavirin]
RSV Mixed Viral Culture % of Control (ave) (RSV minigenome [1]; Ribavirin 0.5 μ/ml): 96.16 % of Control
RSV Mixed Viral Culture % of Control (ave) (RSV minigenome [1]; Ribavirin 1 μ/ml): 44.14 % of Control
RSV Mixed Viral Culture % of Control (ave) (RSV minigenome [1]; Ribavirin 10 μ/ml): 42.42 % of Control
RSV Mixed Viral Culture % of Control (ave) (RSV minigenome [1]; Ribavirin 100 μ/ml): 13.90 % of Control
HCV Mixed Viral Replicon Culture % of Control (ave) (HCV replicon): 100.37 % of Control and 101.51 % of Control and 99.75 % of Control and 110.22 % of Control
effect on HCV replication (HCV replicon): no effect
RSV Single Viral Culture % of Control (ave) (RSV minigenome [2]; Ribavirin 0.5 μ/ml): 97.31 % of Control
RSV Single Viral Culture % of Control (ave) (RSV minigenome [2]; Ribavirin 1 μ/ml): 17.86 % of Control
RSV Single Viral Culture % of Control (ave) (RSV minigenome [2]; Ribavirin 10 μ/ml): 3.74 % of Control
RSV Single Viral Culture % of Control (ave) (RSV minigenome [2]; Ribavirin 100 μ/ml): 2.82 % of Control
effect on Sindbis replicon replication (Sindbis replicon): did inhibit
Sindbis Mixed Viral Replicon Culture % of Control (ave) (Sindbis replicon; Ribavirin 0.5 μg/ml): 40.54 % of Control
Sindbis Mixed Viral Replicon Culture % of Control (ave) (Sindbis replicon; Ribavirin 1 μg/ml): 62.98 % of Control
Sindbis Mixed Viral Replicon Culture % of Control (ave) (Sindbis replicon; Ribavirin 10 μg/ml): 35.04 % of Control
Sindbis Mixed Viral Replicon Culture % of Control (ave) (Sindbis replicon; Ribavirin 100 μg/ml): 18.11 % of Control
